Source: patent publication US9113629B2, “4-amino-6-(4-substituted-phenyl)-picolinates and 6-amino-2-(4-substituted-phenyl)-pyrimidine-4-carboxylates and their use as herbicides” (DOW AGROSCIENCES LLC, priority 2013, dated 2015)

Tested on: not given
Assay: not given
Conditions: not given

| melting point | Compound |
| --- | --- |
| 153 to 154 °C | COC(=O)c1nc(-c2cc(F)c(Br)cc2F)c(F)c(N)c1Cl [Compound 51, methyl 4-amino-6-(4-bromo-2,5-difluorophenyl)-3-chloro-5-fluoropicolinate] |

Tested on: Key Broadleaf Weed and Crop Species
Assay: Post-emergent Test II herbicidal activity (Table 5)
Type: in vivo
Conditions: post-emergence, 336 h; ABUTH: velvetleaf (Abutilon theophrasti); 70 g ai/ha; post-emergent; 14 days after application; read-out: Visual Growth Reduction (%) 14 Days After Application ABUTH
Outline: (§1)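 Greenhouse post-emergent assay: seedlings (first/second true leaf) in Metro-Mix 360 were sprayed at 187 L/ha at a top rate plus twofold dilutions down to 1/16×; solvent-blank controls were included. Percent visual injury was read at 14 d.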

| Compound | pest or weed control at 70 g/ha |
| --- | --- |
| COC(=O)c1nc(-c2cc(F)c(Br)cc2F)c(F)c(N)c1Cl [Compound 51, methyl 4-amino-6-(4-bromo-2,5-difluorophenyl)-3-chloro-5-fluoropicolinate] | 95 to 100% |

Same assay, conditions: post-emergence, 336 h; ABUTH: velvetleaf (Abutilon theophrasti); 140 g ai/ha; post-emergent; 14 days after application; read-out: Visual Growth Reduction (%) 14 Days After Application ABUTH

| Compound | pest or weed control at 140 g/ha |
| --- | --- |
| COC(=O)c1nc(-c2cc(F)c(Br)cc2F)c(F)c(N)c1Cl [Compound 51, methyl 4-amino-6-(4-bromo-2,5-difluorophenyl)-3-chloro-5-fluoropicolinate] | 95 to 100% |

Same assay, conditions: post-emergence, 336 h; AMARE: redroot pigweed (Amaranthus retroflexus); 70 g ai/ha; post-emergent; 14 days after application; read-out: Visual Growth Reduction (%) 14 Days After Application AMARE

| Compound | pest or weed control at 70 g/ha |
| --- | --- |
| COC(=O)c1nc(-c2cc(F)c(Br)cc2F)c(F)c(N)c1Cl [Compound 51, methyl 4-amino-6-(4-bromo-2,5-difluorophenyl)-3-chloro-5-fluoropicolinate] | 95 to 100% |

Same assay, conditions: post-emergence, 336 h; AMARE: redroot pigweed (Amaranthus retroflexus); 140 g ai/ha; post-emergent; 14 days after application; read-out: Visual Growth Reduction (%) 14 Days After Application AMARE

| Compound | pest or weed control at 140 g/ha |
| --- | --- |
| COC(=O)c1nc(-c2cc(F)c(Br)cc2F)c(F)c(N)c1Cl [Compound 51, methyl 4-amino-6-(4-bromo-2,5-difluorophenyl)-3-chloro-5-fluoropicolinate] | 95 to 100% |

Same assay, conditions: post-emergence, 336 h; BRSNN: oilseed-rape, canola (Brassica napus); 70 g ai/ha; post-emergent; 14 days after application; read-out: Visual Growth Reduction (%) 14 Days After Application BRSNN

| Compound | pest or weed control at 70 g/ha |
| --- | --- |
| COC(=O)c1nc(-c2cc(F)c(Br)cc2F)c(F)c(N)c1Cl [Compound 51, methyl 4-amino-6-(4-bromo-2,5-difluorophenyl)-3-chloro-5-fluoropicolinate] | 95 to 100% |

Same assay, conditions: post-emergence, 336 h; BRSNN: oilseed-rape, canola (Brassica napus); 140 g ai/ha; post-emergent; 14 days after application; read-out: Visual Growth Reduction (%) 14 Days After Application BRSNN

| Compound | pest or weed control at 140 g/ha |
| --- | --- |
| COC(=O)c1nc(-c2cc(F)c(Br)cc2F)c(F)c(N)c1Cl [Compound 51, methyl 4-amino-6-(4-bromo-2,5-difluorophenyl)-3-chloro-5-fluoropicolinate] | 95 to 100% |

Same assay, conditions: post-emergence, 336 h; CHEAL: lambsquarters (Chenopodium album); 70 g ai/ha; post-emergent; 14 days after application; read-out: Visual Growth Reduction (%) 14 Days After Application CHEAL

| Compound | pest or weed control at 70 g/ha |
| --- | --- |
| COC(=O)c1nc(-c2cc(F)c(Br)cc2F)c(F)c(N)c1Cl [Compound 51, methyl 4-amino-6-(4-bromo-2,5-difluorophenyl)-3-chloro-5-fluoropicolinate] | 95 to 100% |

Same assay, conditions: post-emergence, 336 h; CHEAL: lambsquarters (Chenopodium album); 140 g ai/ha; post-emergent; 14 days after application; read-out: Visual Growth Reduction (%) 14 Days After Application CHEAL

| Compound | pest or weed control at 140 g/ha |
| --- | --- |
| COC(=O)c1nc(-c2cc(F)c(Br)cc2F)c(F)c(N)c1Cl [Compound 51, methyl 4-amino-6-(4-bromo-2,5-difluorophenyl)-3-chloro-5-fluoropicolinate] | 95 to 100% |

Same assay, conditions: post-emergence, 336 h; EPHHL: wild poinsettia (Euphorbia heterophylla); 70 g ai/ha; post-emergent; 14 days after application; read-out: Visual Growth Reduction (%) 14 Days After Application EPHHL

| Compound | pest or weed control at 70 g/ha |
| --- | --- |
| COC(=O)c1nc(-c2cc(F)c(Br)cc2F)c(F)c(N)c1Cl [Compound 51, methyl 4-amino-6-(4-bromo-2,5-difluorophenyl)-3-chloro-5-fluoropicolinate] | 95 to 100% |

Same assay, conditions: post-emergence, 336 h; EPHHL: wild poinsettia (Euphorbia heterophylla); 140 g ai/ha; post-emergent; 14 days after application; read-out: Visual Growth Reduction (%) 14 Days After Application EPHHL

| Compound | pest or weed control at 140 g/ha |
| --- | --- |
| COC(=O)c1nc(-c2cc(F)c(Br)cc2F)c(F)c(N)c1Cl [Compound 51, methyl 4-amino-6-(4-bromo-2,5-difluorophenyl)-3-chloro-5-fluoropicolinate] | 95 to 100% |

Same assay, conditions: post-emergence, 336 h; HELAN: sunflower (Helianthus annuus); 70 g ai/ha; post-emergent; 14 days after application; read-out: Visual Growth Reduction (%) 14 Days After Application HELAN

| Compound | pest or weed control at 70 g/ha |
| --- | --- |
| COC(=O)c1nc(-c2cc(F)c(Br)cc2F)c(F)c(N)c1Cl [Compound 51, methyl 4-amino-6-(4-bromo-2,5-difluorophenyl)-3-chloro-5-fluoropicolinate] | 95 to 100% |

Same assay, conditions: post-emergence, 336 h; HELAN: sunflower (Helianthus annuus); 140 g ai/ha; post-emergent; 14 days after application; read-out: Visual Growth Reduction (%) 14 Days After Application HELAN

| Compound | pest or weed control at 140 g/ha |
| --- | --- |
| COC(=O)c1nc(-c2cc(F)c(Br)cc2F)c(F)c(N)c1Cl [Compound 51, methyl 4-amino-6-(4-bromo-2,5-difluorophenyl)-3-chloro-5-fluoropicolinate] | 95 to 100% |

Same assay, conditions: post-emergence, 336 h; VIOTR: wild pansy (Viola tricolor); 70 g ai/ha; post-emergent; 14 days after application; read-out: Visual Growth Reduction (%) 14 Days After Application VIOTR

| Compound | pest or weed control at 70 g/ha |
| --- | --- |
| COC(=O)c1nc(-c2cc(F)c(Br)cc2F)c(F)c(N)c1Cl [Compound 51, methyl 4-amino-6-(4-bromo-2,5-difluorophenyl)-3-chloro-5-fluoropicolinate] | 95 to 100% |

Same assay, conditions: post-emergence, 336 h; VIOTR: wild pansy (Viola tricolor); 140 g ai/ha; post-emergent; 14 days after application; read-out: Visual Growth Reduction (%) 14 Days After Application VIOTR

| Compound | pest or weed control at 140 g/ha |
| --- | --- |
| COC(=O)c1nc(-c2cc(F)c(Br)cc2F)c(F)c(N)c1Cl [Compound 51, methyl 4-amino-6-(4-bromo-2,5-difluorophenyl)-3-chloro-5-fluoropicolinate] | 95 to 100% |

Tested on: Key Grass and Sedge Weeds as well as Grass Crops
Assay: Post-emergent Test II herbicidal activity (Table 6)
Type: in vivo
Conditions: Triticum aestivum, post-emergence, 336 h, TRZSS (wheat), application rate 70 g ai/ha, read-out: Visual Growth Reduction (%) 14 Days After Application, TRZSS
Outline: as §1

| Compound | pest or weed control at 70 g/ha |
| --- | --- |
| COC(=O)c1nc(-c2cc(F)c(Br)cc2F)c(F)c(N)c1Cl [Compound 51, methyl 4-amino-6-(4-bromo-2,5-difluorophenyl)-3-chloro-5-fluoropicolinate] | 60 to 74% |

Same assay, conditions: Triticum aestivum, post-emergence, 336 h, TRZSS (wheat), application rate 140 g ai/ha, read-out: Visual Growth Reduction (%) 14 Days After Application, TRZSS

| Compound | pest or weed control at 140 g/ha |
| --- | --- |
| COC(=O)c1nc(-c2cc(F)c(Br)cc2F)c(F)c(N)c1Cl [Compound 51, methyl 4-amino-6-(4-bromo-2,5-difluorophenyl)-3-chloro-5-fluoropicolinate] | 85 to 94% |

Same assay, conditions: post-emergence, 336 h, CYPES: yellow nutsedge (Cyperus esculentus), application rate 70 g ai/ha, read-out: Visual Growth Reduction (%) 14 Days After Application, CYPES

| Compound | pest or weed control at 70 g/ha |
| --- | --- |
| COC(=O)c1nc(-c2cc(F)c(Br)cc2F)c(F)c(N)c1Cl [Compound 51, methyl 4-amino-6-(4-bromo-2,5-difluorophenyl)-3-chloro-5-fluoropicolinate] | 95 to 100% |

Same assay, conditions: post-emergence, 336 h, CYPES: yellow nutsedge (Cyperus esculentus), application rate 140 g ai/ha, read-out: Visual Growth Reduction (%) 14 Days After Application, CYPES

| Compound | pest or weed control at 140 g/ha |
| --- | --- |
| COC(=O)c1nc(-c2cc(F)c(Br)cc2F)c(F)c(N)c1Cl [Compound 51, methyl 4-amino-6-(4-bromo-2,5-difluorophenyl)-3-chloro-5-fluoropicolinate] | 95 to 100% |

Same assay, conditions: post-emergence, 336 h, DIGSA: crabgrass (Digitaria sanguinalis), application rate 70 g ai/ha, read-out: Visual Growth Reduction (%) 14 Days After Application, DIGSA

| Compound | pest or weed control at 70 g/ha |
| --- | --- |
| COC(=O)c1nc(-c2cc(F)c(Br)cc2F)c(F)c(N)c1Cl [Compound 51, methyl 4-amino-6-(4-bromo-2,5-difluorophenyl)-3-chloro-5-fluoropicolinate] | 95 to 100% |

Same assay, conditions: post-emergence, 336 h, ECHCG: barnyardgrass (Echinochloa crus-galli), application rate 70 g ai/ha, read-out: Visual Growth Reduction (%) 14 Days After Application, ECHCG

| Compound | pest or weed control at 70 g/ha |
| --- | --- |
| COC(=O)c1nc(-c2cc(F)c(Br)cc2F)c(F)c(N)c1Cl [Compound 51, methyl 4-amino-6-(4-bromo-2,5-difluorophenyl)-3-chloro-5-fluoropicolinate] | 95 to 100% |

Same assay, conditions: post-emergence, 336 h, ECHCG: barnyardgrass (Echinochloa crus-galli), application rate 140 g ai/ha, read-out: Visual Growth Reduction (%) 14 Days After Application, ECHCG

| Compound | pest or weed control at 140 g/ha |
| --- | --- |
| COC(=O)c1nc(-c2cc(F)c(Br)cc2F)c(F)c(N)c1Cl [Compound 51, methyl 4-amino-6-(4-bromo-2,5-difluorophenyl)-3-chloro-5-fluoropicolinate] | 95 to 100% |

Same assay, conditions: post-emergence, 336 h, ORYSA: rice (Oryza sativa), application rate 70 g ai/ha, read-out: Visual Growth Reduction (%) 14 Days After Application, ORYSA

| Compound | pest or weed control at 70 g/ha |
| --- | --- |
| COC(=O)c1nc(-c2cc(F)c(Br)cc2F)c(F)c(N)c1Cl [Compound 51, methyl 4-amino-6-(4-bromo-2,5-difluorophenyl)-3-chloro-5-fluoropicolinate] | 0 to 29% |

Same assay, conditions: post-emergence, 336 h, ORYSA: rice (Oryza sativa), application rate 140 g ai/ha, read-out: Visual Growth Reduction (%) 14 Days After Application, ORYSA

| Compound | pest or weed control at 140 g/ha |
| --- | --- |
| COC(=O)c1nc(-c2cc(F)c(Br)cc2F)c(F)c(N)c1Cl [Compound 51, methyl 4-amino-6-(4-bromo-2,5-difluorophenyl)-3-chloro-5-fluoropicolinate] | 0 to 29% |

Same assay, conditions: post-emergence, 336 h, SETFA: giant foxtail (Setaria faberi), application rate 70 g ai/ha, read-out: Visual Growth Reduction (%) 14 Days After Application, SETFA

| Compound | pest or weed control at 70 g/ha |
| --- | --- |
| COC(=O)c1nc(-c2cc(F)c(Br)cc2F)c(F)c(N)c1Cl [Compound 51, methyl 4-amino-6-(4-bromo-2,5-difluorophenyl)-3-chloro-5-fluoropicolinate] | 95 to 100% |

Same assay, conditions: post-emergence, 336 h, SETFA: giant foxtail (Setaria faberi), application rate 140 g ai/ha, read-out: Visual Growth Reduction (%) 14 Days After Application, SETFA

| Compound | pest or weed control at 140 g/ha |
| --- | --- |
| COC(=O)c1nc(-c2cc(F)c(Br)cc2F)c(F)c(N)c1Cl [Compound 51, methyl 4-amino-6-(4-bromo-2,5-difluorophenyl)-3-chloro-5-fluoropicolinate] | 95 to 100% |

Same assay, conditions: post-emergence, 336 h, SORVU: grain sorghum (Sorghum vulgare), application rate 70 g ai/ha, read-out: Visual Growth Reduction (%) 14 Days After Application, SORVU

| Compound | pest or weed control at 70 g/ha |
| --- | --- |
| COC(=O)c1nc(-c2cc(F)c(Br)cc2F)c(F)c(N)c1Cl [Compound 51, methyl 4-amino-6-(4-bromo-2,5-difluorophenyl)-3-chloro-5-fluoropicolinate] | 95 to 100% |

Same assay, conditions: post-emergence, 336 h, SORVU: grain sorghum (Sorghum vulgare), application rate 140 g ai/ha, read-out: Visual Growth Reduction (%) 14 Days After Application, SORVU

| Compound | pest or weed control at 140 g/ha |
| --- | --- |
| COC(=O)c1nc(-c2cc(F)c(Br)cc2F)c(F)c(N)c1Cl [Compound 51, methyl 4-amino-6-(4-bromo-2,5-difluorophenyl)-3-chloro-5-fluoropicolinate] | 95 to 100% |

Same assay, conditions: post-emergence, 336 h, ZEAMX: maize, corn (Zea mays), application rate 70 g ai/ha, read-out: Visual Growth Reduction (%) 14 Days After Application, ZEAMX

| Compound | pest or weed control at 70 g/ha |
| --- | --- |
| COC(=O)c1nc(-c2cc(F)c(Br)cc2F)c(F)c(N)c1Cl [Compound 51, methyl 4-amino-6-(4-bromo-2,5-difluorophenyl)-3-chloro-5-fluoropicolinate] | 85 to 94% |

Same assay, conditions: post-emergence, 336 h, ZEAMX: maize, corn (Zea mays), application rate 140 g ai/ha, read-out: Visual Growth Reduction (%) 14 Days After Application, ZEAMX

| Compound | pest or weed control at 140 g/ha |
| --- | --- |
| COC(=O)c1nc(-c2cc(F)c(Br)cc2F)c(F)c(N)c1Cl [Compound 51, methyl 4-amino-6-(4-bromo-2,5-difluorophenyl)-3-chloro-5-fluoropicolinate] | 85 to 94% |
